The source of these data is ChEMBL document CHEMBL1201862, “PubChem BioAssay data set” (2004).

What all share (experiment): DTP human tumour cell line panel, 48 h
Test [1] deals with HCT-15.
Test [2] deals with HCC 2998.
Test [3] has as its system NCI-H522.
Test [4] relates to NCI-H23.
The subject of test [5] is RPMI-8226.
Test [6] has as its system SK-MEL-28.
Test [7] concerns K562.
Test [8] deals with SR.
The subject of test [9] is UO-31.
Test [10] has as its system NCI/ADR-RES.
The subject of test [11] is PC-3.
The test system of test [12] is T47D.
Test [13] relates to OVCAR-8.
Test [14] relates to SK-MEL-5.
The test system of test [15] is HL-60.
In test [16] the test system is HOP-92.
For test [17], the system named is NCI-H460.
Test [18] has as its system A498.
In test [19] the test system is IGROV-1.

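All cell lines were grown in 96-well plates and treated with compound for 48 hours. GI50 is the concentration that inhibits growth by half.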 Activity calls are given as the source filed them. Rule as the data show it: active = GI50 up to about 1.1 µM and inactive = higher.

With `O=C(O)c1nc2cc(C(F)(F)F)ccc2[nH]c1=O`, the GI50 was > 100 µM in test [1]; > 100 µM (inactive) in test [2]; > 100 µM (inactive) in test [3]; > 100 µM (inactive) in test [4]; > 100 µM (inactive) in test [5]; > 100 µM (inactive) in test [6]. Besides, the GI50 in test [7] is > 100 µM (inactive); in [8], > 100 µM (inactive); in test [9] it was 60.8 µM (inactive); in test [10] it was > 100 µM (inactive); in test [11], > 100 µM (inactive); in test [12], > 100 µM (inactive). The GI50 in [13], in test [14], in [15], in test [16], in [17] and in test [18] was > 100 µM (inactive) each time. For the same compound, the GI50 in test [19] is > 100 µM (inactive).
As for `COC(=O)c1ccc2c(c1)CC1(C2)Cc2cc3c(c(C(=O)OC)c2C1)CCCC3` (configuration not stated), the GI50 is 67.8 µM in test [1]; 86.5 µM (inactive) in test [2]; > 100 µM (inactive) in test [3]; 65.5 µM (inactive) in [4]; 38.4 µM (inactive) in test [5]; > 100 µM (inactive) in [6]. Besides, the GI50 in [7] was 41.1 µM (inactive); in [8], 69.5 µM (inactive); in test [9], > 100 µM (inactive); in test [10], 82.8 µM (inactive); in [11] it was 54.1 µM (inactive); in test [12], 47.3 µM (inactive). The GI50 in [13] is > 100 µM (inactive); in test [14] it was 21.2 µM (inactive); in test [15], 31.5 µM (inactive); in [16], 22.4 µM (inactive); in test [17], 96.6 µM (inactive); in test [18], 32.5 µM (inactive). Besides, the GI50 in test [19] is > 100 µM (inactive).
As for `N#Cc1c(N)nc(Sc2ccccc2N)c(C#N)c1-c1ccc(Cl)cc1`, the GI50 in test [1] is 7.4 µM; in [2], 9.73 µM (inactive); in [3] it was 11.6 µM (inactive); in [4], 21.4 µM (inactive); in test [5], 2.61 µM (inactive); in test [6] it was 33.6 µM (inactive). Besides, the GI50 in test [7] is 3.07 µM (inactive); in test [8], 1 µM (active); in [9], 2.79 µM (inactive); in test [10], 6.4 µM (inactive); in test [11] it was 3.71 µM (inactive); in [12] it was 0.368 µM (active). Moreover, the GI50 in test [13] is 9.12 µM (inactive); in [14] it was 12.6 µM (inactive); in [15], > 27.5 µM (inactive); in test [16], 15.8 µM (inactive); in test [17] it was 9.46 µM (inactive); in [18], 2.65 µM (inactive). In addition, in test [19], the GI50 was 5.52 µM (inactive).
Turning to `CS(=O)(=O)C(=Cc1ccccc1Cl)S(C)(=O)=O`, the GI50 in test [1] was > 100 µM; in [2], > 100 µM (inactive); in test [3], > 100 µM (inactive); in test [4], > 100 µM (inactive); in test [5], > 100 µM (inactive); in test [6], > 100 µM (inactive). Further, the GI50 in test [7] was 3.7 µM (inactive); in test [8] it was > 100 µM (inactive); in test [9], > 100 µM (inactive); in [10] it was > 100 µM (inactive); in test [11], > 100 µM (inactive); in test [12], > 100 µM (inactive). In addition, the GI50 is > 100 µM (inactive) in test [13]; > 92 µM (inactive) in test [14]; 1.14 µM (inactive) in [15]; > 100 µM (inactive) in test [16]; > 100 µM (inactive) in test [17]; > 100 µM (inactive) in test [18]. In addition, in test [19], the GI50 was > 100 µM (inactive).
Take `CNc1nc2c(C)ccc3nc(N(C)C)[nH]c3c-2n1`: the GI50 in test [1] was 23.9 µM; in test [2], 28.2 µM (inactive); in test [3] it was 54 µM (inactive); in test [4], 32.9 µM (inactive); in test [5] it was 20.7 µM (inactive); in test [6] it was 52 µM (inactive). In addition, the GI50 was 12.8 µM (inactive) in test [7]; 43.8 µM (inactive) in [8]; 34.6 µM (inactive) in test [9]; 77.1 µM (inactive) in test [10]; 46.9 µM (inactive) in test [11]; 46.6 µM (inactive) in test [12]. Further, the GI50 was 34.5 µM (inactive) in test [13]; 20.7 µM (inactive) in test [14]; 26.9 µM (inactive) in [15]; > 100 µM (inactive) in test [16]; 26.2 µM (inactive) in test [17]; 85.1 µM (inactive) in test [18]. The GI50 in test [19] was 47.8 µM (inactive).
As for `CC(=O)NNC1=NN(C(C)=O)C2(S1)C(=O)Nc1ccc(C)cc12` (configuration not stated), the GI50 in test [1] was 50 µM; in test [2] it was 47.1 µM (inactive); in test [3], 42 µM (inactive); in [4] it was > 100 µM (inactive); in test [5], 34.8 µM (inactive); in [6] it was 78.3 µM (inactive). Also, the GI50 in [7] is 48.3 µM (inactive); in test [8], 55.5 µM (inactive); in test [9] it was 32.4 µM (inactive); in test [10] it was > 100 µM (inactive); in test [11], 67.5 µM (inactive); in [12], 23 µM (inactive). The GI50 in test [13] is 83.6 µM (inactive); in test [14], 68.5 µM (inactive); in [15], 38.3 µM (inactive); in test [16], 29 µM (inactive); in test [17] it was 67 µM (inactive); in test [18] it was 38.1 µM (inactive). Further, the GI50 in test [19] is 66.5 µM (inactive).
Consider `C/C(=N\NC(=S)NC(C)(C)C)c1nc2cccnc2[nH]1`, for which the GI50 in test [1] was 2.47 µM; in test [2], 3.79 µM (inactive); in test [3], 4.53 µM (inactive); in test [4] it was 8.26 µM (inactive); in [5] it was 6.05 µM (inactive); in test [6], 8.71 µM (inactive). The GI50 in test [7] is 1.83 µM (inactive); in [8], 4.9 µM (inactive); in test [9], 1.06 µM (active); in [10], 3.03 µM (inactive); in test [11], 7.93 µM (inactive); in test [12] it was 0.427 µM (active). In addition, the GI50 in [13] is 1.5 µM (inactive); in test [14] it was 2.21 µM (inactive); in test [15], 1.2 µM (inactive); in [16] it was 1.47 µM (inactive); in test [17], 3.03 µM (inactive); in [18] it was 18.6 µM (inactive). The GI50 in test [19] is 3.06 µM (inactive).
As to `O=[N+]([O-])c1cccc([N+](=O)[O-])c1Cl`, the GI50 was 12.1 µM in test [1]; 1.47 µM (inactive) in test [2]; 12.6 µM (inactive) in test [3]; 16.6 µM (inactive) in test [4]; 1.15 µM (inactive) in [5]; 21.1 µM (inactive) in test [6]. The GI50 in test [7] was 5.71 µM (inactive); in [8] it was 3.93 µM (inactive); in test [9], 1.32 µM (inactive); in test [10] it was 21.7 µM (inactive); in [11], 13.5 µM (inactive); in test [12], 2.96 µM (inactive). Further, the GI50 in test [13] was 16.4 µM (inactive); in test [14], 16.4 µM (inactive); in test [15], 2.82 µM (inactive); in test [16] it was 18.8 µM (inactive); in test [17] it was 23.3 µM (inactive); in [18] it was 21.8 µM (inactive). In [19], the GI50 is 15.9 µM (inactive).
